One data set concerns U87 glioblastoma cells. In words: MTT cell viability, U87. The format is cell-based. Particulars: Homo sapiens, 72 h, read-out: IC50 U87 (GBM). The method, then:
(§1) U87-MG, U251-MG and NCI-H1299 cells were purchased from ATCC, while MKN45 was obtained from the Leibniz Institute DSMZ-German Collection of Microorganisms and Cell Cultures and the RWP1 cell line was kindly provided by Dr. Francisco Real. Cells were cultured in DMEM or RPMI (Gibco, Waltham, MA, USA) supplemented with 10% FBS, 100 U/mL penicillin and streptomycin and 2 mM L-Glutamine. Patient-derived glioma neural stem cells (GNS166 and GNS179) were kindly provided by Dr. Steve Pollard. These cells were cultured in adhesion plates treated with laminin A in DMEM/F12 media (Gibco) supplemented with N2 (Gibco), B27 (Gibco), D-(+)-Glucose solution 45% (Sigma-Aldrich, Burlington, MA, USA), basic Fibroblast Growth Factor (Gibco) and epidermal growth factor (Sigma-Aldrich). Normal human astrocytes (NHAs) were purchased from ScienCell and cultured using an astrocyte medium kit (ScienCell, San Diego, CA, USA) supplemented with FBS and Astrocyte Growth Supplement (AGS). All cells were maintained at standard conditions of 37 °C, 95% humidity, 21% O2 and 5% CO2, and cultures were regularly tested for Mycoplasma.
(§2) Cells were seeded in 96-well plates at a density of 1.5 × 10^3 or 5 × 10^3 cells/well (conventional cell lines or GNS and NHAs, respectively) and incubated overnight. Next, cells were treated with increasing concentrations of the compounds, and after 72 h, they were incubated for 3.5 h with MTT. Then, absorbance at 570 nm was measured. GraphPad Prism software version 10.4.1 was used to calculate the IC50 values.

The next data set relates to U251 glioma cells. In words: MTT cell viability, U251. The format is cell-based. Particulars: Homo sapiens, U-251, 72 h, read-out: IC50 U251 (GBM). The method, then:
as §1
(§3) Cells were seeded in 96-well plates at a density of 1.5 × 10^3 or 5 × 10^3 cells/well (conventional cell lines or GNS and NHAs, respectively) and incubated overnight. […] Then, absorbance at 570 nm was measured. […]

Data set [1] concerns GNS166 patient-derived glioma stem cells. Nature of the data set: MTT cell viability, GNS166. The format is cell-based. Particulars: Homo sapiens, 72 h, read-out: IC50 GNS166 (GBM). The method, then:
as §1, §3

A further data set has as its system H1299 lung cancer cells. In words: MTT cell viability, H1299. The format is cell-based, human. The method, then: as §1, §2
In another data set the target is T1, recombinant hMAO-B (Homo sapiens, UniProt P27338).
T1 sequence (P27338 1-520): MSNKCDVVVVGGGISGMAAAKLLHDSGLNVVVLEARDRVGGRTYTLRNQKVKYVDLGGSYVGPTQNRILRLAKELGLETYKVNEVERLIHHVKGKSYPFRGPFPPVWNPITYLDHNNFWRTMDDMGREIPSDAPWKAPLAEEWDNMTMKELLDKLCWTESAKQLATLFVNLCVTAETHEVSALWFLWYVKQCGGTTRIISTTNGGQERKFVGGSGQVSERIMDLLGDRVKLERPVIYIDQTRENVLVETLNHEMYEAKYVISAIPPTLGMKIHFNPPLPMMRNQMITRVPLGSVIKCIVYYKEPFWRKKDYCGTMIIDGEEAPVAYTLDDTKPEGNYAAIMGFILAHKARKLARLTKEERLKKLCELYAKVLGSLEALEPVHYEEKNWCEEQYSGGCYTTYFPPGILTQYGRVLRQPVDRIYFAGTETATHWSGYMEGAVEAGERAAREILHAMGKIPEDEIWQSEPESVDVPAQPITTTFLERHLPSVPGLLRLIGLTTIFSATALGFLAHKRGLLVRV
In words: MAO-B inhibition assay. Particulars: for MAO inhibition MAO-B % / inhibition at 10 µM: 10 μM. In kind it is biochemical. On the procedure: […] Next, horseradish peroxidase (200 U/mL), Ampliflu Red (20 mM) and tyramine hydrochloride (100 mM) (Sigma-Aldrich) were added, and absorbance was measured at 570 nm every 5 min for 30 min. The percentage of inhibition was calculated from the absorbance values.

The next data set has as its target BChE (Homo sapiens, UniProt P06276). Nature of the data set: BChE inhibition, Ellman's colorimetric method. In kind it is biochemical. Particulars: for inhibition at 10 µM: read-out: ChE inhibition BChE %. On the procedure:
The inhibitory capacity of the compounds on ChEs was assessed using Ellman’s colorimetric method. Briefly, an inhibitor solution containing 10 µM of the MSMs and 0.3 mM DTNB was incubated for 20 min with the enzyme solution ([…]) at 37 °C. […] Inhibition percentages were calculated from these values. […] Further, enzyme kinetics were studied using different substrate and inhibitor concentrations. Results were represented in a Lineweaver–Burk plot using GraphPad Prism, and the constant of inhibition (Ki) was estimated from the point at which the line cuts the x-axis in the secondary plot.
Background: Ellman's reagent forms a yellow product with free thiols.

Data set [2] concerns GNS166, GNS179, U87 and U251 cells. Nature of the data set: Immunofluorescence of Ki67, p-H3 and cleaved caspase-3. In kind it is cell-based, human. Particulars: 1, 3 and 5 μM, 48 h, all glioma cell types. The method, then: For immunofluorescence assays, cells were seeded at a density of 2 × 10^4 cells/well in 8-well immunofluorescence chambers (LabTek Thermo, Waltham, MA, USA) and incubated overnight. Then, cells were treated for 48 h and fixed with 4% PFA. Primary antibodies against phospho-histone H3 (p-H3) (Abcam), cleaved caspase-3 (Casp3) (R&D Systems, Minneapolis, MN, USA) and Ki67 (Abcam) and secondary antibodies Alexa Fluor anti-mouse and anti-rabbit (Invitrogen, Carlsbad, CA, USA) were used. Nuclei were stained with DAPI (Sigma-Aldrich). Pictures were taken with an Axio Observer 7 epifluorescence microscope, and Qupath version 0.6.0 was used for quantifications. Percentages of Ki67-, p-H3- and Casp3-positive cells were calculated, taking into account the number of nuclei.

A short description of data set [3]: In vivo toxicity, body weight. Particulars: intraperitoneal, 3 days per week. Further details: species or system athymic nude-Foxn1nu mice.
The subject of the next data set is U87 subcutaneous tumors. Nature of the data set: Subcutaneous U87 tumor growth and tumor immunohistochemistry. The format is in vivo, athymic nude-Foxn1nu mice. Particulars: 50 mg/kg i.p.; for final tumor volume: 3 days per week for 4 weeks, control ~750; for decrease in the number of Ki67-positive cells (IHC): resected tumors. The method, then:
For carcinogenesis studies, subcutaneous tumor growth experiments were performed via the injection of 5 × 10^5 cells into two bottom flanks of athymic nude-Foxn1^nu mice. Once tumors reached a size of 25–50 mm^3, mice were sorted into different treatment groups based on their gender and tumor size. An external caliper was used for tumor size measurement, and the tumor volume was estimated using the formula V = L·W^2·0.5 (where L is tumor length and W is tumor width). […] Sample size was calculated, taking into account that control groups could have an average size of 700 mm^3 and we wanted to detect a difference of […]. For the cytotoxic experiment, 8 controls and 8 treated animals were used, while for the efficacy experiment 12 control animals and 8 treated animals were used.
Subcutaneous tumors were extracted, fixed with 4% formaldehyde for 48 h and embedded in paraffin. Tumor sections were obtained and stainings for Ki67 (Ab16667, Abcam), acetyl H3 (9649, Cell Signaling) and acetylated α-tubulin (ab179484, Abcam) were performed. A ZEISS Axioscan 7 slide scanner was used to capture images of the stainings, and analyses were performed using Qupath.

The mark [4] stands for this setting: increasing concentrations of inhibitor.

Structures are written as SMILES. Like-named read-outs stand apart in the source and are kept apart here. Bounds are passed on as bounds.

BChE, sequence (P06276 29-602, species assumed): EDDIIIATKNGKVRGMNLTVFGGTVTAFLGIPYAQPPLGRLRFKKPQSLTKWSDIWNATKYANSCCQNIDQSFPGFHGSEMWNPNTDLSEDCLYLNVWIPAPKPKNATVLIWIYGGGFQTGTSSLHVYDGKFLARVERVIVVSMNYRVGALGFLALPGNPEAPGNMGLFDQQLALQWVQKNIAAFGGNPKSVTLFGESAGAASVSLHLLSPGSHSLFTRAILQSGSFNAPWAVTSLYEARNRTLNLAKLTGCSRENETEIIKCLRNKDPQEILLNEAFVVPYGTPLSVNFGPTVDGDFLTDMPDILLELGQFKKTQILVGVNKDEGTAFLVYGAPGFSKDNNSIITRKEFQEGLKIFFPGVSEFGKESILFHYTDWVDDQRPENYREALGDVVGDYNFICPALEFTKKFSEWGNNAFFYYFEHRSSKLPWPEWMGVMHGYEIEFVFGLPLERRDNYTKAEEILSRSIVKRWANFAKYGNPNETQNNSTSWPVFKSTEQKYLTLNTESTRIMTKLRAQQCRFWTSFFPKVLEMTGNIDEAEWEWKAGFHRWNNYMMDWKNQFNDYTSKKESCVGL

The term IC50 denotes the midpoint of a concentration-inhibition curve. By inhibition is commonly meant how much of the control response was suppressed. The Ki is the equilibrium dissociation constant of an inhibitor or competing ligand from its target. Regarding `CCCNNC(=O)c1ccc(S(=O)(=O)n2ccc3cc(OCCCN4CCCCC4)ccc32)cc1` [FRB44], the IC50 in the data set with U87 glioblastoma cells is approximately 1.5 µM; with U251 glioma cells, 3.1 µM; in data set [1], 15 µM; in the data set on H1299 lung cancer cells (Homo sapiens, NCI-H1299, 72 h) it was 11 µM; at recombinant hMAO-B (setting [4]), 3.16 µM; against BChE (setting [4]), 8.24 µM. Further, the inhibition at 1 µM on recombinant hMAO-B came out at 18%. Besides, at recombinant hMAO-B, the “MAO inhibition MAO-B %” value is 70%. Moreover, the inhibition at 10 µM is 69% on recombinant hMAO-B and 71% on BChE (10 μM). Further, the Type of inhibition entry at BChE is “Mixed”; on BChE (BChE, Lineweaver-Burk plot), “mixed inhibition”. Besides, the “ChE inhibition BChE %” value on BChE (10 μM) is 70%. This compound came in with a Ki on BChE (BChE, secondary plot of Lineweaver-Burk slopes) of 1.36 µM. For the same compound, the “proliferative markers (Ki67- and p-H3-positive cells)” value in [2] was “clear reductions”. Also, in [3], the “body weight vs control animals” value is given as “no statistically significant differences”. Also, the “final tumor weight, lower compared to controls” value with U87 subcutaneous tumors is reported as 62.5%. For the same compound, the final tumor volume in the data set on U87 subcutaneous tumors is ~ 325 mm^3. In addition, the “decrease in the number of Ki67-positive cells (IHC)” value in the data set on U87 subcutaneous tumors is given as “around 30%”.
With `C#CCN1CCN(CCCOc2ccc3c(ccn3S(=O)(=O)c3ccc(C(=O)NNCCC)cc3)c2)CC1` [FRB56], the IC50 is approximately 1.5 µM in the data set on U87 glioblastoma cells; 12 µM in the data set on U251 glioma cells; 13.7 µM in [1]; less than 5 µM in the data set with H1299 lung cancer cells (72 h); 4.9 µM in the data set with H1299 lung cancer cells (Homo sapiens, NCI-H1299, 72 h). Moreover, the inhibition at 1 µM on recombinant hMAO-B was 83%. Besides, the “MAO inhibition MAO-B %” value on recombinant hMAO-B is 90%. The inhibition at 10 µM on recombinant hMAO-B came to 89%; on BChE (10 μM), 15%. For the same compound, the “proliferative markers (Ki67- and p-H3-positive cells)” value in [2] is given as “clear reductions”. For the same compound, in [3], the “body weight vs control animals” value is “no statistically significant differences”. For the same compound, in the data set with U87 subcutaneous tumors, the “final tumor weight, lower compared to controls” value is on record as 61.4%. The final tumor volume with U87 subcutaneous tumors is listed as ~ 280 mm^3. The “decrease in the number of Ki67-positive cells (IHC)” value in the data set with U87 subcutaneous tumors is “around 30%”.

(Values after PMC12736535, “Generation and Characterization of Novel Contilisant+Tubastatin a Multitarget Small Molecules Against Glioblastoma” (Pharmaceutics, 2025).)
